Measurements: patent US20030219482A1, “Multiparticulate compositions for once-a-day administration” (priority 2002, published 2003)
Counter-ions that a name gives are not always drawn.

Assay: Drug release (dissolution) of the controlled release tablets, USP apparatus Type I
Type: physicochemical
Details: 900 ml phosphate buffer pH 7.5, USP Type I basket 100 rpm, Example tablet
Protocol: The tablets were characterized for drug release in 900 ml of phosphate buffer of pH 7.5. The USP apparatus Type I with basket speed at 100 rpm was used for the study. The samples of the media were periodically withdrawn and analyzed for drug content.

Structure (SMILES): Cc1cnc(C(=O)NCCc2ccc(S(=O)(=O)NC(=O)NC3CCCCC3)cc2)cn1 [Glipizide]
- Cumulative percent drug released (1 hour): 6.5%
- Cumulative percent drug released (2 hours): 16.6%
- Cumulative percent drug released (3 hours): 27.1%
- Cumulative percent drug released (4 hours): 33.9%
- Cumulative percent drug released (5 hours): 41.5%
- Cumulative percent drug released (6 hours): 47.3%
- Cumulative percent drug released (8 hours): 55.4%
- Cumulative percent drug released (10 hours): 67.9%
- Cumulative percent drug released (12 hours): 75.2%
- Cumulative percent drug released (15 hours): 85.8%
- Cumulative percent drug released (18 hours): 93.0%
- Cumulative percent drug released (21 hours): 99.4%
- Cumulative percent drug released (24 hours): 102.5%

Structure (SMILES): CN(C)C(=N)N=C(N)N [Metformin Hydrochloride, Metformin hydrochloride]
- Cumulative percent drug released (1 hour): 28.83%
- Cumulative percent drug released (2 hours): 49.59%
- Cumulative percent drug released (3 hours): 64.74%
- Cumulative percent drug released (4 hours): 78.09%
- Cumulative percent drug released (5 hours): 88.49%
- Cumulative percent drug released (6 hours): 93.26%
- Cumulative percent drug released (8 hours): 97.29%
- Cumulative percent drug released (10 hours): 100.01%
- Cumulative percent drug released (12 hours): 103.93%
- Cumulative percent drug released (15 hours): 105.57%
- Cumulative percent drug released (18 hours): 105.92%
- Cumulative percent drug released (21 hours): 105.99%
- Cumulative percent drug released (24 hours): 106.47%
